From paper PMC10794137, “A new antibiotic traps lipopolysaccharide in its intermembrane transporter” (Nature, 2024)
Values joined by “and” are separate entries in the source; they are usually repeats but may differ in a detail not shown here. Identical values can stand only once. Like-named read-outs stand apart in the source and are kept apart here.

Columns and labels:
[1] = system: Acinetobacter baylyi ADP1 wild type; experiment: microbe, parasite or virus in culture; assay type: cell-based; conditions: A. baylyi wild type
Protocol: (§1) Culture, genetic manipulation and MIC measurements of A. baylyi ADP1 were conducted according to previously reported procedures[46],[51]. Point mutants were constructed in a two-step procedure following ref. [52] with the introduction and excision of the integration cassette at codon 66 of pepA, wherein the excising fragment of otherwise wild-type chromosomal DNA sequence from codon 406 of pepA to codon 193 of lptG bore the desired mutation and the resulting clones were screened by amplicon sequencing from codon 81 of HolC to codon 501 of GpmI, whereas lpxM deletion was achieved following the same procedure except that the integration cassette insertion and excision removed codons 79–279 of lpxM to avoid interference with neighbouring and overlapping genes that a larger deletion may risk and replaced codon 78 with an ochre stop codon to prevent a readthrough resulting in an aberrant fusion, with the excising fragment sequence spanning from codon 211 of sppA to codon 497 of ComA and verified by amplicon sequencing from codon 94 of MhpC to codon 327 of ComA as well as by absence of a PCR product corresponding to a region spanning codons 79 to 279 of lpxM to check for duplications. A deletion of the lon protease was made in the same manner to produce the stain used for expression and purification of LptB2FG to mimic the BL21 strain of E. coli used in the rest of purifications, for which the region encompassing 72 base pairs (bp) upstream of the lon start codon and 1 bp downstream of the lon stop codon was excised after being replaced with the same integration cassette, yielding a markerless deletion, with the excising fragment sequence spanning from codon 491 of ArnT to codon 40 of 45_DOPA_Dioxygenase and verified by amplicon sequencing spanning from codon 322 of ArnT to codon 221 of 45_DOPA_Dioxygenase as well as by absence of a PCR product corresponding to a region spanning from codons 328 to 768 of lon to check for duplications. Following amplicon confirmation, three validated isolates of each constructed mutant were tested for susceptibility to a panel of antibiotics with […] known mechanisms of action as a further validation step to ensure congruence of phenotypes across replicates, which was confirmed in all cases and one of the validated replicates was later used for MIC measurements reported here.
(§2) MIC determinations were performed by broth microdilution in line with CLSI guidelines (CLSI M07-A11 2018). Bacterial inocula were prepared by diluting overnight liquid cultures in LB. Antibacterial panels containing antibacterial solutions were inoculated with an appropriate volume of inoculum to give a final inoculum of about 5 × 10^5 c.f.u. ml^−1 and desired test concentrations of antibacterial agents in standard 96-well plates with 0.1 ml of culture per well. The test plates were incubated for 20–24 h and optical density (OD600) was recorded using a plate reader. MIC values corresponded to the lowest compound concentration inhibiting bacterial growth beyond which OD ceased to decrease.

[2] = system: Acinetobacter baylyi ΔlpxM; experiment: MIC by broth microdilution, A. baylyi ΔlpxM; assay type: cell-based
Protocol: as §1, §2

[3] = biological target: His-tagged LptB2FG (ablLptB2FG) (Acinetobacter baylyi, UniProt Q6FFD6+Q6FFD7); experiment: Radioligand binding SPA, LptB2FG
Chain of His-tagged LptB2FG (ablLptB2FG) (Q6FFD7 1-366): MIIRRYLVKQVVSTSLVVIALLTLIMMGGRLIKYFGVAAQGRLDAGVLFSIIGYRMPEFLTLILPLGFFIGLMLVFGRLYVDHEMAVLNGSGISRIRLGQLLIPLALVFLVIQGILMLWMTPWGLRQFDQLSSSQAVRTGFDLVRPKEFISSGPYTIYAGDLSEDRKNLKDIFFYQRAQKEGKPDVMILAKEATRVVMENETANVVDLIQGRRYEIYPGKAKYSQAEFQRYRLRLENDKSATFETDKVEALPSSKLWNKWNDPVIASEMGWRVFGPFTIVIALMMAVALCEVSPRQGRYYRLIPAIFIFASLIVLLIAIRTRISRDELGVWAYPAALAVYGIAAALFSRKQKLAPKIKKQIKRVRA
Chain of His-tagged LptB2FG (ablLptB2FG) (Q6FFD6 1-356): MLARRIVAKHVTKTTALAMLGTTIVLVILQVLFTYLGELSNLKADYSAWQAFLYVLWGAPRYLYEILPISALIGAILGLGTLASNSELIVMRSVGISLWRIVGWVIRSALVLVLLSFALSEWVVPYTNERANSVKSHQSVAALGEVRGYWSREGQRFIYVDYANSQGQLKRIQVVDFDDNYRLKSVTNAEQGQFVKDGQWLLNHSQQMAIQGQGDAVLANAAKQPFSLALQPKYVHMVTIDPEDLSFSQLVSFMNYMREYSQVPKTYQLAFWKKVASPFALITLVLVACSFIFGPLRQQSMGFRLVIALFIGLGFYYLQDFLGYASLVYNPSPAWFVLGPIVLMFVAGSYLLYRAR
Chain of His-tagged LptB2FG (ablLptB2FG) (Q6FC66 1-249 partner): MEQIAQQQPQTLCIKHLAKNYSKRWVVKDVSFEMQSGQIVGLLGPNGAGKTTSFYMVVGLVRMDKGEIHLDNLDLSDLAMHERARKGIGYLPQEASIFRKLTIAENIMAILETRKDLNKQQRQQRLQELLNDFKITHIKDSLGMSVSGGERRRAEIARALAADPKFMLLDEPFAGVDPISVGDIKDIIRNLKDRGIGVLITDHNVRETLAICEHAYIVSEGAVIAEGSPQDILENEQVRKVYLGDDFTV
Protocol: The binding of radioligand [^3H]-RO7223280 to ablLptB2FG and ablLptB2FGC was measured by bead-based SPA. All steps were performed in SEC buffer (20 mM Tris pH 7.5, 300 mM NaCl, 5% glycerol, 0.5 mM TCEP, 0.05% DDM ± 10 µM E.coli J5 LPS(Rc) [sequence] (Enzo Life Sciences)) and at 4 °C unless otherwise indicated. Purified protein was first incubated with Copper PVT HIS-tag beads (Perkin Elmer) for 1.5 h under gentle rotation. Twelve radioligand concentrations were added to the PVT–protein mix and incubated for another 30 min. […] The SPA plates were sealed (TopSeal, Perkin Elmer) and stored at 4 °C overnight. Before the measurement, plates were mixed on a shaker for 20 min, 750 rpm at room temperature and the seal was thoroughly wiped with antistatic spray to reduce electrostatic events. Scintillation data were recorded with a Topcount NXT C384, in the form of three independent replicates each consisting of three technical triplicates. Specific binding was calculated by subtracting non-specific binding raw counts from total binding raw counts. The dissociation constant Kd and standard deviation of the three independent replicates are reported and were calculated by the GraphPad Prism ‘One site – specific binding’ tool.

[4] = system: His-tagged LptB2FGC (ablLptB2FGC); conditions: SPA
Protocol: The binding of radioligand [^3H]-RO7223280 to ablLptB2FG and ablLptB2FGC was measured by bead-based SPA. All steps were performed in SEC buffer (20 mM Tris pH 7.5, 300 mM NaCl, 5% glycerol, 0.5 mM TCEP, 0.05% DDM ± 10 µM E.coli J5 LPS(Rc) […] (Enzo Life Sciences)) and at 4 °C unless otherwise indicated. Purified protein was first incubated with Copper PVT HIS-tag beads (Perkin Elmer) for 1.5 h under gentle rotation. Twelve radioligand concentrations were added to the PVT–protein mix and incubated for another 30 min. […] The SPA plates were sealed (TopSeal, Perkin Elmer) and stored at 4 °C overnight. Before the measurement, plates were mixed on a shaker for 20 min, 750 rpm at room temperature and the seal was thoroughly wiped with antistatic spray to reduce electrostatic events. Scintillation data were recorded with a Topcount NXT C384, in the form of three independent replicates each consisting of three technical triplicates. Specific binding was calculated by subtracting non-specific binding raw counts from total binding raw counts. The dissociation constant Kd and standard deviation of the three independent replicates are reported and were calculated by the GraphPad Prism ‘One site – specific binding’ tool.

[5] = Acinetobacter baylyi, ADP1WILDTYPE, read-out: MIC

Row | Compound | MIC [1, 5] | MIC ([2]; Acinetobacter baylyi) | further results
1 | CO[C@H]1[C@H](OC(=O)c2ccc(C)[nH]2)[C@H](O)[C@@H](Oc2ccc3c(O)c(NC(=O)c4c[nH]c(C(=O)Nc5c(O)c6ccc(O[C@H]7OC(C)(C)[C@@H](OC)[C@H](OC(=O)c8ccc(C)[nH]8)[C@@H]7O)c(C)c6oc5=O)c4C)c(=O)oc3c2C)OC1(C)C [Coumermycin A1] | 5 µM and 6 µg/mL | 0.16 µM and 0.18 µg/mL | 
2 | CO[C@@H]1[C@@H](OC(N)=O)[C@@H](O)[C@H](Oc2ccc3c(O)c(NC(=O)c4ccc(O)c(CC=C(C)C)c4)c(=O)oc3c2C)OC1(C)C [Novobiocin] | 4 µM and 2 µg/mL | 0.6 µM and 0.4 µg/mL | 
3 | CO[C@H]1/C=C/O[C@@]2(C)Oc3c(C)c(O)c4c(O)c(c(/C=N/N5CCN(C)CC5)c(O)c4c3C2=O)NC(=O)/C(C)=C\C=C\[C@H](C)[C@H](O)[C@@H](C)[C@@H](O)[C@@H](C)[C@H](OC(C)=O)[C@@H]1C [Rifampicin] | 1.6 µM and 1.3 µg/mL | 0.6 µM and 0.5 µg/mL | 
4 | Oc1cc(Cl)ccc1Oc1ccc(Cl)cc1Cl [Triclosan] | 0.126 µM and 0.036 µg/mL | 0.03 µM and 0.009 µg/mL | 
5 | CN[C@H](CC(C)C)C(=O)N[C@H]1C(=O)N[C@@H](CC(N)=O)C(=O)N[C@H]2C(=O)N[C@H]3C(=O)N[C@H](C(=O)N[C@H](C(=O)O)c4cc(O)cc(O)c4-c4cc3ccc4O)[C@H](O)c3ccc(c(Cl)c3)Oc3cc2cc(c3O[C@@H]2O[C@H](CO)[C@@H](O)[C@H](O)[C@H]2O[C@H]2C[C@](C)(N)[C@H](O)[C@H](C)O2)Oc2ccc(cc2Cl)[C@H]1O [Vancomycin] | 500 µM and 700 µg/mL | 17 µM and 25 µg/mL | 
6 | CN1C(=O)[C@H](CCCCN)NC(=O)[C@H](CCCN)NCc2cccnc2Sc2cccc(-c3ccc(C(=O)O)cc3)c2CNC(=O)[C@@H]1Cc1c[nH]c2ccccc12 [[^3H]-RO7223280] |  |  | Binding of radiolabelled 2 to LptB2FG ([3]; binding dependent on presence of LPS): bound to LptB2FG; Kd ([3]; used as constraint for Ki fit): 86 nM; Binding of radiolabelled 2 to LptB2FGC [4]: not LptB2FGC
7 | Bacitracin |  |  | MIC [1]: 700 µg/mL; MIC ([1]; read-out: MIC): 500 µM; MIC ([2]; A. baylyi ΔlpxM): 20 µM and 30 µg/mL
